Results on three molecules are retold here after ChEMBL document CHEMBL2429821, “A Casein kinase 1/Checkpoint kinase 1 pyrazolo-pyridine protein kinase inhibitor as novel activator of the p53 pathway” (Bioorg Med Chem Lett, 2013).

In experiment [1] the target is T1, Serine/threonine-protein kinase Sgk1 (Homo sapiens) (UniProt O00141).
T1 sequence (whole entry): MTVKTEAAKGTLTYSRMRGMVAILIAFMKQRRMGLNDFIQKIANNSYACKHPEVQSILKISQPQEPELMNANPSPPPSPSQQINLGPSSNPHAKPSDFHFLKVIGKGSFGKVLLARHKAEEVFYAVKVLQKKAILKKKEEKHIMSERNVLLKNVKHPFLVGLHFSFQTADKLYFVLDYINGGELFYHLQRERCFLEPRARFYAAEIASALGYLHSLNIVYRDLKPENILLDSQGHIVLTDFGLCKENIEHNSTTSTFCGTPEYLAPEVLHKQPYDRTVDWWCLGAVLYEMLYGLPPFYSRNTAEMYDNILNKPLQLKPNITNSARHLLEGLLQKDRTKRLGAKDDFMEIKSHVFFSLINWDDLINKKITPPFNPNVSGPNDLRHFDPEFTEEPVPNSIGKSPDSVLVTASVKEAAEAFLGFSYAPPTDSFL
Put plainly: Inhibition of human SGK1 assessed as residual activity at 1 uM relative to control.

In experiment [2] the target is T2, Protein kinase C zeta type (Homo sapiens) (UniProt Q05513).
T2 sequence (whole entry): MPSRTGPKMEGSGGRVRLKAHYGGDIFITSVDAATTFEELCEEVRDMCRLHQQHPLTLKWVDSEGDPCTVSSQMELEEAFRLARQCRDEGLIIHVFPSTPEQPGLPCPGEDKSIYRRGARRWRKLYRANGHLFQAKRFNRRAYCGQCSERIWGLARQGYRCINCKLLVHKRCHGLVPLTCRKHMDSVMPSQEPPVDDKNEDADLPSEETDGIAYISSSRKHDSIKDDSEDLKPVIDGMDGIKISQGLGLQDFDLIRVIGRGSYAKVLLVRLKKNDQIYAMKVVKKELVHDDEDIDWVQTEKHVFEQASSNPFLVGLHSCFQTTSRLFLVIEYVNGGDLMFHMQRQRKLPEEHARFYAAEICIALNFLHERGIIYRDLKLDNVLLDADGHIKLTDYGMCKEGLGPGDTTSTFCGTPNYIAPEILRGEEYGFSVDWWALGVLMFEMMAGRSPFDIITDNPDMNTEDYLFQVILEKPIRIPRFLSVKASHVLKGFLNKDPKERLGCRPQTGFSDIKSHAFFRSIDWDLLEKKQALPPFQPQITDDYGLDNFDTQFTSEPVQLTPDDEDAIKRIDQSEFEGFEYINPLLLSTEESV
Put plainly: Inhibition of human PKCzeta assessed as residual activity at 1 uM relative to control.

The species named for experiment [3] is Rattus norvegicus. Put plainly: Inhibition of rat AMPK assessed as residual activity at 10 uM relative to control.
Experiment [4] deals with Dual specificity tyrosine-phosphorylation-regulated kinase 1A (Rattus norvegicus) (UniProt Q63470). Put plainly: Inhibition of rat DYRK1alpha assessed as residual activity at 1 uM relative to control.
In experiment [5] the target is Insulin receptor (Homo sapiens) (UniProt P06213). Put plainly: Inhibition of human IR assessed as residual activity at 10 uM relative to control.
Sequence of Insulin receptor (Homo sapiens) (P06213 28-758 limits assumed): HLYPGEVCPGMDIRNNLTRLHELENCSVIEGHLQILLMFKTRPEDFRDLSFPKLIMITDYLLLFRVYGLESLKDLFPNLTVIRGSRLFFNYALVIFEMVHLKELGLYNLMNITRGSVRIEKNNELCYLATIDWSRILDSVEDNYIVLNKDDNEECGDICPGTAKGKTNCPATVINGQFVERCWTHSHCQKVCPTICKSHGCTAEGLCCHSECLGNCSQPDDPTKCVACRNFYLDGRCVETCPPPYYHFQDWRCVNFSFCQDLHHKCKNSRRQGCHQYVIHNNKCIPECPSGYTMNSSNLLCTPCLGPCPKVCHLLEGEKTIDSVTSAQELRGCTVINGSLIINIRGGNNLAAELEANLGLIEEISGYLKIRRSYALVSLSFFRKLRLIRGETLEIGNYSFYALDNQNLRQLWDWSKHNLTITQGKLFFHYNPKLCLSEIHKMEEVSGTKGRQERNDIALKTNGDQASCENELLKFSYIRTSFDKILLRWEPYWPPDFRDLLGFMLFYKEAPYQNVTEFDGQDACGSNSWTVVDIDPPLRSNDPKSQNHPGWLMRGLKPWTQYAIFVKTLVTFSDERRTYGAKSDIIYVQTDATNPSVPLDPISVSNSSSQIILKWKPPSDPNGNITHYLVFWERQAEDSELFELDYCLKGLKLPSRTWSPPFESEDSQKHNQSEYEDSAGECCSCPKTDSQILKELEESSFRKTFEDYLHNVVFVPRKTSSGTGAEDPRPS
Sequence of Insulin receptor (Homo sapiens) (P06213 763-1382 limits assumed): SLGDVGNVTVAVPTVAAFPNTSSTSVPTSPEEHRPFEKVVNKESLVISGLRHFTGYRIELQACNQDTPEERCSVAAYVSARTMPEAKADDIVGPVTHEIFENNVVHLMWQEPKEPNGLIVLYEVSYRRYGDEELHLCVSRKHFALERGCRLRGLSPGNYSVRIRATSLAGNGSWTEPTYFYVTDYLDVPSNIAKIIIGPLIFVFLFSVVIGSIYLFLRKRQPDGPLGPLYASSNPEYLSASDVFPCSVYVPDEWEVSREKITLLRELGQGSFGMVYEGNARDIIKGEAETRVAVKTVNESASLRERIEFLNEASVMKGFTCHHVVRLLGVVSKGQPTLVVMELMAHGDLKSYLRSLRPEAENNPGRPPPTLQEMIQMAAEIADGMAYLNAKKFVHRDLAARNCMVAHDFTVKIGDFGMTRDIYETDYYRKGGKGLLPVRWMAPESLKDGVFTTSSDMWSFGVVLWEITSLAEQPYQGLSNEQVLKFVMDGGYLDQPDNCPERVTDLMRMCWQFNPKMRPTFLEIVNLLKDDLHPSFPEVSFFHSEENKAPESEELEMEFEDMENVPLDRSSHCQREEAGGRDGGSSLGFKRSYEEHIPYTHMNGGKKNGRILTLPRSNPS
In experiment [6] the target is T3, Serine/threonine-protein kinase D1 (Homo sapiens) (UniProt Q15139).
T3 sequence (whole entry): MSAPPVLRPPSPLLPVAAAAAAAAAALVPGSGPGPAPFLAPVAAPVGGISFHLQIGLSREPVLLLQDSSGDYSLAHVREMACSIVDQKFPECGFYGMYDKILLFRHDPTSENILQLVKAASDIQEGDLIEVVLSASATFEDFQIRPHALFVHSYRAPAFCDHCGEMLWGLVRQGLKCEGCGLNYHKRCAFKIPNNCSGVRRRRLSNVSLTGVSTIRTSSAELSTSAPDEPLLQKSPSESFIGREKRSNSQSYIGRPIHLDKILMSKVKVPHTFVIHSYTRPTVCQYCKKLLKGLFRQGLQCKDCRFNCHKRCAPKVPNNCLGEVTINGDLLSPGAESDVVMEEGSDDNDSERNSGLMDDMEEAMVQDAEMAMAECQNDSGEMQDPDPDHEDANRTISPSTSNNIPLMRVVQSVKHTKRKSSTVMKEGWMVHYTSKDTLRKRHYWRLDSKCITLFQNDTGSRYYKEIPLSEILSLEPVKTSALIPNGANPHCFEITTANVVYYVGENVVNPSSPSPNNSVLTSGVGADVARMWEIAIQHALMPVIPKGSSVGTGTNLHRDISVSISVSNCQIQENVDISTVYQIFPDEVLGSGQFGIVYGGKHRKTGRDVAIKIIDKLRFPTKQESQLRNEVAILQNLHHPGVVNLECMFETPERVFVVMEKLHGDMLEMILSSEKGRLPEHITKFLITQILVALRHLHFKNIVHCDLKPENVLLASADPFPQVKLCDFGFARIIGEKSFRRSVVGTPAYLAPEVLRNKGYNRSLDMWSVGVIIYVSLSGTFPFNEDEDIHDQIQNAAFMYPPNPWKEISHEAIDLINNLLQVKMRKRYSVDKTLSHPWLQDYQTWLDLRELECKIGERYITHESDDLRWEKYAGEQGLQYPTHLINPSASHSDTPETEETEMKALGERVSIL
Put plainly: Inhibition of human PKD1 assessed as residual activity at 1 uM relative to control.

For experiment [7], the target named is Casein kinase I isoform delta (Rattus norvegicus) (UniProt Q06486). Put plainly: Inhibition of rat CK1delta assessed as residual activity at 1 uM relative to control.
Sequence of Casein kinase I isoform delta (Rattus norvegicus) (Q06486 whole entry, looked up, canonical isoform): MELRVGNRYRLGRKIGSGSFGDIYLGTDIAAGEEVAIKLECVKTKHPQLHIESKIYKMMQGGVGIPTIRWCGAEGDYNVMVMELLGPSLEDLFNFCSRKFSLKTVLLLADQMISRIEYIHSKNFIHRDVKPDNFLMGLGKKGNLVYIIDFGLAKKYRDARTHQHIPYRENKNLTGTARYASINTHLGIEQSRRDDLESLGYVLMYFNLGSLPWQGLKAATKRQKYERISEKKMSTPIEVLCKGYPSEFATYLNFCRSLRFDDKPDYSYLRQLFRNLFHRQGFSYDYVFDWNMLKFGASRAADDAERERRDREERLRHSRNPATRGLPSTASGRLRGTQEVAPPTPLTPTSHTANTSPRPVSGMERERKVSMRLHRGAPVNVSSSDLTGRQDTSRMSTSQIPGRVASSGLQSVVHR
The target of experiment [8] is MAP kinase-interacting serine/threonine-protein kinase 1 (Homo sapiens) (UniProt Q9BUB5). Put plainly: Inhibition of human MNK1 assessed as residual activity at 10 uM relative to control.
Sequence of MAP kinase-interacting serine/threonine-protein kinase 1 (Homo sapiens) (Q9BUB5 whole entry, looked up): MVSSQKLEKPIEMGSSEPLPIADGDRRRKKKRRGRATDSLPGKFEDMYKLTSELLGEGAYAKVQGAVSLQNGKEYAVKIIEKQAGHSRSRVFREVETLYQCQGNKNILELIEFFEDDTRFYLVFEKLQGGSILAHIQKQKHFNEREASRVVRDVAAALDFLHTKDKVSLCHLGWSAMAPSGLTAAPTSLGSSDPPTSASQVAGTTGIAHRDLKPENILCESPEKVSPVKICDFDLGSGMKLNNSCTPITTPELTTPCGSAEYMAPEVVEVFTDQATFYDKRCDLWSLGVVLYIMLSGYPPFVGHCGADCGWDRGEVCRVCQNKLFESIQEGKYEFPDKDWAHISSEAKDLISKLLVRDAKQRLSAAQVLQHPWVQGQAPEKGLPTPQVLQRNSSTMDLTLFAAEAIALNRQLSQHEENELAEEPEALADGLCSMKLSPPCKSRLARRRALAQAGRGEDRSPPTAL
Experiment [9] deals with Tyrosine-protein kinase SYK (Homo sapiens) (UniProt P43405). Put plainly: Inhibition of human SYK assessed as residual activity at 1 uM relative to control.
Experiment [10] has as its target Serine/threonine-protein kinase PAK 4 (Homo sapiens) (UniProt O96013). Put plainly: Inhibition of human PAK4 assessed as residual activity at 10 uM relative to control.

Sequence of Serine/threonine-protein kinase PAK 4 (Homo sapiens) (O96013 whole entry, looked up): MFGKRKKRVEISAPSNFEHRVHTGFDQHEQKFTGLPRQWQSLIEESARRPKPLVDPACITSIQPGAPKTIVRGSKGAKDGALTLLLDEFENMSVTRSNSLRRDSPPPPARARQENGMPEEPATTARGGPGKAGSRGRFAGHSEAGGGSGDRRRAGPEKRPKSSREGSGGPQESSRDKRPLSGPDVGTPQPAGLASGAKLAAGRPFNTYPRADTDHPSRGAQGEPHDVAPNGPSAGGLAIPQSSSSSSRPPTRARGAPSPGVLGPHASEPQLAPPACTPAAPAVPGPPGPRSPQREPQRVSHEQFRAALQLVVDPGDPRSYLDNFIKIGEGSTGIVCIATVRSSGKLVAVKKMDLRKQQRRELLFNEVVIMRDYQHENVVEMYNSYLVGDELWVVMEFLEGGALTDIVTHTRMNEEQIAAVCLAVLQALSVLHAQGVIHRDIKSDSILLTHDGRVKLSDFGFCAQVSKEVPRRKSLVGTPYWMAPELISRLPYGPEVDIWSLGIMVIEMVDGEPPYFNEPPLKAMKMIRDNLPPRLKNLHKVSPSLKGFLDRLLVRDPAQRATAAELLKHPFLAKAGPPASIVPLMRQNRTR

Consider `CC(=O)Nc1cccc(-c2cnc3[nH]nc(C)c3c2)c1`, for which the Activity in experiment [1] amounted to 105%; in experiment [2], 120%; in [3], 69.9%; in [4], 76.2%; in experiment [5], 94.9%; in experiment [6] it was 108%. Moreover, the Activity was determined as 32.7% in [7], 19.3% in experiment [8], 115% in experiment [9] and 51.9% in experiment [10].
Consider `CCCC(=O)Nc1n[nH]c2ncc(-c3cccnc3)cc12`, for which the Activity in experiment [1] came to 108%; in [2] it was 84%; in experiment [3], 105%; in experiment [4], 5%; in [5] it was 101%; in experiment [6] it was 76%. Moreover, the Activity stood at 73% in experiment [7], 91% in experiment [8], 99% in experiment [9] and 79% in [10].
Take `CC(=O)Nc1nccc(-c2c(-c3ccccc3)noc2C)n1`: the Activity worked out at 57.5% in [1]; 93.7% in experiment [2]; 101% in experiment [3]; 91.9% in experiment [4]; 100% in [5]; 80.7% in experiment [6]. The Activity worked out at 44.4% in experiment [7], 102% in experiment [8], 69% in [9] and 106% in experiment [10].
